{"source": "patent US10018630B2", "about": "“Cancer stem cell isolation” (CHUGAI SEIYAKU KABUSHIKI KAISHA, priority 2011, dated 2018)", "key": {"Lgr5-negative colon CSCs": {"system": "Lgr5-negative colon CSCs", "test": "Cell proliferation / chemosensitivity assay (Cell Counting Kit-8)", "format": "cell-based, human", "settings": "for proliferation and survival of Lgr5-negative colon CSCs: 10 μg/ml, three days; for resistance of Lgr5-negative CSCs (percentage of viable cells relative to non-treated control): PLR59 and PLR123, cultured three days at each concentration (FIG. 45)", "description": "(§1) Tissues of xenograft were cut with a razor blade in order to prepare single cancer cell suspensions. After the suspensions were incubated at 37° C. for 3 hours in DPBS containing collagenase/dispase (Roche) and DNaseI (Roche), the suspensions were filtered through 40-μm Cell Strainers (BD Biosciences). The cells were suspended in the lysis buffer (BD Biosciences) to remove erythrocytes. The prepared xenograft-derived cells were cultured under 5% CO2 atmosphere at 37° C. in DMEM/F12 (Invitrogen) containing N-2 Supplement (Invitrogen), 20 ng/ml human EGF (Invitrogen), 10 ng/ml human basic fibroblast growth factor (Sigma), 4 μg/ml heparin (Sigma), 4 mg/ml BSA (Invitrogen), 20 μg/ml human insulin zinc solution (Invitrogen), and 2.9 mg/ml glucose (Sigma) (Todaro M, et al. (2007) Cell Stem Cell 1: 389-402). Adherent and floating CSCs were cultured using conventional polystyrene-treated cell culture flasks (BD Biosciences) and Ultra-low attachment cell culture flasks (Corning), respectively.\n(§2) Floating and adherent cells were plated at about 100 and 1×10^4 cells/well in 96-well plates, respectively. On days 0 and 3, viable cell counts were determined by the Cell Counting Kit-8 Assay (Doujindo) according to the manufacturer's protocol. Average absorbance on day 0 was taken as 100%. For chemosensitivity assay, floating and adherent cells were plated at about 100 and 1×10^4 cells/well in 96-well plates, respectively. […] After three days of culture in the presence of the agents, the Cell Counting Kit-8 was added to the cells. The average absorbance of cells exposed to DMSO or medium alone was taken as 100%. All experiments were performed in triplicate."}, "Lgr5-positive colon CSCs [1]": {"system": "Lgr5-positive colon CSCs", "test": "Cell proliferation / chemosensitivity assay (Cell Counting Kit-8)", "format": "cell-based, human", "description": "as §1, §2"}, "Lgr5-positive colon CSCs [2]": {"system": "Lgr5-positive colon CSCs", "test": "Transition of Lgr5-positive colon CSCs to the Lgr5-negative state after drug exposure (flow cytometry, immunostaining, qPCR)", "format": "cell-based, human", "settings": "for Lgr5 expression by IHC (antibody 2L36): adherent condition, 24 hours with drug, then 48 hours without drug; for Lgr5 state of drug-resistant cells: three-day exposure of Lgr5-positive colon CSCs", "description": "Colon CSCs were incubated with mouse anti-human Lgr5 antibody (2T15E-2) and then with […] rat anti-mouse IgG antibody (Invitrogen) to stain Lgr5. The aldehyde dehydrogenase activity was measured using the AldeFluor Kit (Stemcell Technologies). Mouse cells were discriminated from human colon CSCs by staining with anti-mouse MHC class I antibody (Abcam), and PE- or APC-labeled goat […] antibody (BioLegend). Dead cells were also removed using the 7-AAD Viability Dye (Beckman Coulter).\nTotal RNAs were isolated using the RNeasy Mini Kit including DNAase treatment (Qiagen). cDNAs were synthesized using the First-Strand cDNA Synthesis Kit (SABiosciences). Quantitative real-time PCR (QRT-PCR) analysis was performed with the SYBR Green/Rox qPCR (SABiosciences) using the Mx3005P Real-Time PCR System (Stratagene). The fold induction value was calculated according to the 2-ΔΔCt method. GAPDH and ACTB were used as a reference. All experiments were performed in triplicate.\nFor immunofluorescent cytochemistry, cells were fixed with 4% paraformaldehyde and methanol, and incubated with a mouse anti-human E-cadherin antibody (Abcam), rabbit anti-human Snail antibody (Abcam), or rabbit anti-human β-catenin antibody (Sigma)). Then, the cells were visualized using the AlexaFluor 488-labeled goat anti-mouse IgG antibody or goat anti-rabbit IgG antibody. For immunofluorescent cytochemistry, the fixed cells and thin sections derived from paraffin blocks of xenograft tumors were incubated with a mouse anti-human Lgr5 antibody (2U2E-2) or rabbit anti-human Snail antibody (Abcam), rabbit anti-human HLA-DMA antibody (Sigma), rabbit anti-TMEM173 antibody (Abcam), rabbit anti-human ZMAT3 antibody (Abcam), or rabbit anti-human GPR110 antibody (Abcam). After incubation with the primary antibody, Lgr5 protein was detected with a goat anti-mouse antibody conjugated with polymer-HRP (DAKO) and visualized with AlexaFluor 488-labeled tyramide (Invitrogen), while Snail, HLA-DMA, and TMEM173 proteins were detected with a biotinylated goat anti-rabbit antibody (VECTOR) and visualized with AlexaFluor 568-labeled streptavidin (Invitrogen). These cells and samples were also stained with DAPI (Invitrogen). ZMAT3 and GPR110 proteins were detected with a goat anti-rabbit antibody conjugated with polymer HRP (DAKO) and visualized with diaminobenzidine. The cells and samples were stained with Mayer's hematoxylin (Muto Pure Chemicals Co.).\nIn addition, the present inventors carried out examinations to assess whether Lgr5-negative colon CSCs undergo a transition into an Lgr5-positive state. […] On the other hand, when Lgr5-positive adherent colon CSCs were cultured in an ultra low adherent plate, the present inventors observed that some of the cells halted their growth and formed a spheroid-like structure and that the Lgr5 mRNA level was very low (FIGS. 12 and 33). The transition from the Lgr5-positive to Lgr5-negative state (and the reverse) was also confirmed by observations using a single cell in culture. […] When single Lgr5-negative cells prepared via irinotecan treatment were individually cultured in a multi-well plate in the absence of irinotecan, 19 to 43% of the cells underwent a transition into the Lgr5-positive state within four days (FIG. 47 and Table 5).\nLgr5-positive cells were incubated under an adherent condition in the presence of 5-FU or oxaliplatin for 24 hours, and then cultured in the absence of the drug for 48 hours. The cells were analyzed for the expression of Lgr5 by IHC using an anti-Lgr5 antibody (antibody 2L36). […] Next, Lgr5-negative cells sorted using MoFlo XDP cell sorter and treated with 5-FU or oxaliplatin were cultured for four days in the absence of the drug. The cells were analyzed for Lgr5 expression."}, "[3]": {"system": "tumors derived from LGR5-positive CSCs (PLR123)", "test": "Irinotecan treatment of NOG mice bearing tumors derived from Lgr5-positive CSCs", "format": "in vivo", "description": "Mice bearing tumors derived from LGR5-positive CSCs (PLR123) were treated with irinotecan, and their tumors were observed. Irinotecan or vehicle was administered to mice at days 12, 15, and 18 after tumor grafting. Scale bar represents 25 μm.\nFIG. 53 Irinotecan was administered at a dose of 120 mg/kg/day to NOG mice at days 12, 15, and 18 after grafting tumors derived from LGR5-positive CSCs (PLR123). This figure is a graph showing tumor volumes in control mice administered with vehicle (closed diamond) and mice administered with irinotecan (closed square or triangle). Each value represents mean±standard deviation.\nFIG. 54 is a graph showing the numbers of Lgr5-positive and HLA-DMA-positive cells in xenograft tumor tissues. Thin sections of tissues were treated with Lgr5 antibody and HLA-DMA antibody, and then the numbers of Lgr5-positive and HLA-DMA-positive cells were counted. Values represent the total numbers of cells counted for respective groups (n=3).\nTo probe the possibility of in vivo transition to a growth inhibitor-resistant state, irinotecan was administered at the maximum tolerated dose (MTD) (120 mg/kg) into the peritoneal cavities of NOG mice bearing tumors derived from Lgr5-positive CSCs. […] By contrast, in vehicle-treated control mice, about one third of cancer cells were positive for Lgr5 in both ductal and budding areas (FIG. 52). Both Lgr5-positive cells and HLA-DMA-positive and Lgr5-negative cells were positive for EREG, and were identified to be CSCs (FIG. 52). After irinotecan treatment, Lgr5-positive cells appeared again (FIG. 52). Furthermore, xenografts were excised from mice on day 21 after transplantation of irinotecan-treated or non-treated Lgr5-positive cells. Sections from the xenografts were double-stained with an anti-Ki67 antibody and an anti-Lgr5 antibody or an anti-HLA-DMA antibody. The result of double staining for Ki67 and Lgr5 or HLA-DMA, which is a marker for Lgr5-negative cells, also confirmed a correlation between Lgr5 expression and Ki67 staining in xenografts, similarly to the observation using in vitro cultured cells. Specifically, the Lgr5-positive cells were positive for Ki67, while the Lgr5-negative/HLA-DMA-positive cells were negative for Ki67 (FIG. 65)."}, "[4]": {"settings": "120 mg/kg into the peritoneal cavity"}}}
{"smiles": "Cc1cc([N+](=O)[O-])ccc1NS(=O)(=O)c1cc(Cl)ccc1Cl", "note": "[FH535]", "values": [{"measurement": "proliferation of Lgr5-negative colon CSCs", "setting": "Lgr5-negative colon CSCs; 50 μM, three days of culture", "value": "had no effect on the proliferation"}, {"measurement": "proliferation of Lgr5-positive colon CSCs", "setting": "Lgr5-positive colon CSCs [1]; 50 μM, three days of culture", "value": "significantly reduced the proliferation"}]}
{"smiles": "O=c1[nH]cc(F)c(=O)[nH]1", "note": "[5-FU, fluorouracil]", "values": [{"measurement": "proliferation and survival of Lgr5-negative colon CSCs", "setting": "Lgr5-negative colon CSCs", "value": "did not affect the proliferation and survival"}, {"measurement": "resistance of Lgr5-negative CSCs (percentage of viable cells relative to non-treated control)", "setting": "Lgr5-negative colon CSCs", "value": "fully resistant"}, {"measurement": "proliferation of Lgr5-positive colon CSCs", "setting": "Lgr5-positive colon CSCs [1]; 10 μg/ml, three days", "value": "significantly inhibited the proliferation"}, {"measurement": "Lgr5 expression by IHC (antibody 2L36)", "setting": "Lgr5-positive colon CSCs [2]", "value": "most of the Lgr5-positive cells underwent transition into the Lgr5-negative state"}, {"measurement": "Lgr5 state of drug-resistant cells", "setting": "Lgr5-positive colon CSCs [2]", "value": "negative for Lgr5"}]}
{"smiles": "O=C1[O][Pt]2([NH][C@@H]3CCCC[C@H]3[NH]2)[O]C1=O", "note": "[oxaliplatin]", "values": [{"measurement": "Lgr5 expression by IHC (antibody 2L36)", "setting": "Lgr5-positive colon CSCs [2]", "value": "most of the Lgr5-positive cells underwent transition into the Lgr5-negative state"}]}
{"smiles": "CCc1c2c(nc3ccc(OC(=O)N4CCC(N5CCCCC5)CC4)cc13)-c1cc3c(c(=O)n1C2)COC(=O)[C@]3(O)CC", "note": "[irinotecan]", "values": [{"measurement": "tumor growth", "setting": "[3]; 120 mg/kg (MTD) into the peritoneal cavity, days 12, 15 and 18 after grafting", "value": "inhibited almost completely"}, {"measurement": "Lgr5-positive cells in tumor", "setting": "[3]; [4]", "value": "dramatic decrease"}, {"measurement": "ductal structures of tumor", "setting": "[3]; [4]", "value": "collapsed extensively"}, {"measurement": "number of Lgr5-negative and HLA-DMA-positive cells in tumor", "setting": "[3]; [4]", "value": "increased significantly"}, {"measurement": "proliferation and survival of Lgr5-negative colon CSCs", "setting": "Lgr5-negative colon CSCs", "value": "did not affect the proliferation and survival"}, {"measurement": "resistance of Lgr5-negative CSCs (percentage of viable cells relative to non-treated control)", "setting": "Lgr5-negative colon CSCs", "value": "fully resistant"}, {"measurement": "proliferation of Lgr5-positive colon CSCs", "setting": "Lgr5-positive colon CSCs [1]; 10 μg/ml, three days", "value": "significantly inhibited the proliferation"}, {"measurement": "level of Lgr5 mRNA (quantitative real-time PCR)", "setting": "Lgr5-positive colon CSCs [2]; Lgr-negative cells after irinotecan treatment (FIG. 43)", "value": "almost undetectable"}, {"measurement": "fluorescence representing Lgr5 positivity", "setting": "Lgr5-positive colon CSCs [2]; PLR123, before vs after irinotecan treatment (FIG. 42)", "value": "disappeared after the treatment"}, {"measurement": "ALDH activity", "setting": "Lgr5-positive colon CSCs [2]; after irinotecan treatment", "value": "reduced"}, {"measurement": "Lgr5 state of single Lgr5-positive cells cultured individually", "setting": "Lgr5-positive colon CSCs [2]; multi-well plate, within three days after irinotecan treatment", "value": "underwent a transition into the Lgr5-negative state"}, {"measurement": "Lgr5 state of drug-resistant cells", "setting": "Lgr5-positive colon CSCs [2]", "value": "negative for Lgr5"}]}
{"smiles": "COc1cc(O)cc(O)c1C(=O)/C=C/c1ccccc1", "note": "[cardamonin]", "values": [{"measurement": "viable cell count", "setting": "Lgr5-negative colon CSCs; 50 μM, three days of culture, Lgr5-negative colon CSCs, relative to DMSO alone", "value": "about 50%"}, {"measurement": "viable cell count", "setting": "Lgr5-positive colon CSCs [1]; 50 μM, three days of culture, Lgr5-positive colon CSCs, relative to DMSO alone", "value": 70, "unit": "%"}]}
